According to ChEMBL document CHEMBL4825684, “Design, synthesis and biological evaluation of N-anthraniloyl tryptamine derivatives as pleiotropic molecules for the therapy of malignant glioma” (Eur J Med Chem, 2021):
Calls of active or inactive are those of the source. No cut-off for these calls is given here.

Key:
[1] = Tmax in Sprague-Dawley rat at 60 mg/kg, ip measured up to 24 hrs by LC-MS analysis; assay type: ADME, organism-based; conditions: in vivo
[2] = Acute toxicity in Kunming mouse assessed behavioural changes at 1000 mg/kg, ip measured for 14 days; assay type: organism-based; conditions: in vivo, 336 h, time 14 day
U-251 [3] = test: Induction of apoptosis in human U-251 cells assessed as increase in ROS generation at 1 to 4 uM incubated for 48 hrs […] relative to control; assay type: functional, cell-based; conditions: dose 1-4 µM
[4] = Toxicity in rat C6 cells inoculated orthotopic Sprague-Dawley rat model at 50 mg/kg, ip twice a day administered for 25 days; assay type: organism-based; conditions: in vivo, 600 h, time 25 day
C6 [5] = test: Antitumor activity against rat C6 cells inoculated orthotopic Sprague-Dawley rat model assessed as reduction tumor weight at 50 mg/kg, ip twice a day treated 3 days after tumor cell injection measured for 13 days after tumor implantation; assay type: functional, organism-based; conditions: time 3.0 day
U-251 [6] = test: Cytotoxicity against human U-251 cells assessed as cell viability at 4 uM measured up to 24 hrs; assay type: functional; conditions: U-251, 24 h, time hrs <=24, read-out: Activity
U-87 MG [7] = test: Induction of apoptosis in human U-87 MG cells assessed as late apoptotic cells at 2 uM incubated for 48 hrs by […] double staining based flow cytometry assay (reference value: 0.61%); assay type: functional, U-87MG ATCC
C6 [8] = test: Antitumor activity against rat C6 cells inoculated orthotopic Sprague-Dawley rat model assessed as decrease in VEGF-A in tumor tissue at 50 mg/kg, ip twice a day treated 3 days after tumor cell injection measured for 13 days after tumor implantation by Western blot analysis; assay type: functional, organism-based; conditions: time 3.0 day
C6 [9] = test: Antiproliferative activity against rat C6 cells assessed as growth inhibition incubated for 72 hrs by CCK-8 assay; assay type: functional, cell-based; conditions: C6, 72 h
U-251 [10] = test: Cell cycle arrest in human U-251 cells assessed as accumulation at G2/M phase at 8 uM incubated for 48 hrs by PI staining based flow cytometry assay (reference value: 11.9%); assay type: functional
U-251 [11] = test: Induction of apoptosis in human U-251 cells assessed as late apoptotic cells at 8 uM incubated for 48 hrs by […] double staining based flow cytometry assay (reference value: 1.39%); assay type: functional
[12] = Plasma concentration in Sprague-Dawley rat at 60 mg/kg, ip measured up to 24 hrs by LC-MS analysis; assay type: ADME, organism-based
[13] = Plasma concentration in Sprague-Dawley rat at 60 mg/kg, ip measured after 2 hrs by LC-MS analysis; assay type: ADME, organism-based
[14] = molecular target: T1, Prostaglandin G/H synthase 2 (Homo sapiens, UniProt P35354); test: Inhibition of human COX2 assessed as fluorescence by microplate reader
T1 sequence (P35354 whole entry): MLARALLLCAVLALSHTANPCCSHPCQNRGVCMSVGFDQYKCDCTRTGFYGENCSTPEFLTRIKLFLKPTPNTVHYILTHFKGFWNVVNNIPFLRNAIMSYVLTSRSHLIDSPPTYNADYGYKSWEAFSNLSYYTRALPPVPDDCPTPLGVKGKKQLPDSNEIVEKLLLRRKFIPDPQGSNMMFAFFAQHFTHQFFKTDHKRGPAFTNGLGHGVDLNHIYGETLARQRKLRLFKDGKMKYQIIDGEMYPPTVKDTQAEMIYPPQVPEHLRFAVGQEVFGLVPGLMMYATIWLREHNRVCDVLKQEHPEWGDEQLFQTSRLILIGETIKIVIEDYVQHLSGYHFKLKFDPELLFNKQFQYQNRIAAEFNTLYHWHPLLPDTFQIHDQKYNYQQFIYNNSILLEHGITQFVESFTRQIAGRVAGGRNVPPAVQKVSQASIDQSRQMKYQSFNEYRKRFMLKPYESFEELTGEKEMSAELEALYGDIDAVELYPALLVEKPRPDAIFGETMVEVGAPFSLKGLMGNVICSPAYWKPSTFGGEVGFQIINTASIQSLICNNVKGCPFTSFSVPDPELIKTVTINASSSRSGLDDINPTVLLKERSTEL

U-87 MG [15] = test: Antiproliferative activity against human U-87 MG cells assessed as decrease in proliferation at 4 uM measured after 24 hrs by EdU assay relative to control; assay type: functional, cell-based; conditions: U-87MG ATCC
U-87 MG [16] = test: Induction of apoptosis in human U-87 MG cells assessed as viable cells at 2 uM incubated for 48 hrs by Annexin VIM double staining based flow cytometry assay (reference value: 97.8%); assay type: functional, U-87MG ATCC; conditions: read-out: Activity
[17] = Toxicity in rat C6 cells inoculated orthotopic Sprague-Dawley rat model assessed as autonomic movement at 50 mg/kg, ip twice a day administered for 13 days of tumor implantation by open field test; assay type: organism-based; conditions: in vivo, 312 h, time 13 day
U-251 [18] = test: Antiproliferative activity against human U-251 cells assessed as growth inhibition incubated for 72 hrs by CCK-8 assay; assay type: functional, cell-based; conditions: U-251, 72 h
[19] = Acute toxicity in Kunming mouse assessed mortality at 1000 mg/kg, ip measured for 14 days; assay type: organism-based; conditions: in vivo, 336 h, time 14 day
[20] = molecular target: Signal transducer and activator of transcription 3 (Homo sapiens) (UniProt P40763); test: Inhibition STAT3 phosphorylation in human U-251 cells incubated up to 8 hrs by Western blot analysis; assay type: cell-based; conditions: time hrs <=8
Signal transducer and activator of transcription 3 (Homo sapiens), sequence (P40763 whole entry): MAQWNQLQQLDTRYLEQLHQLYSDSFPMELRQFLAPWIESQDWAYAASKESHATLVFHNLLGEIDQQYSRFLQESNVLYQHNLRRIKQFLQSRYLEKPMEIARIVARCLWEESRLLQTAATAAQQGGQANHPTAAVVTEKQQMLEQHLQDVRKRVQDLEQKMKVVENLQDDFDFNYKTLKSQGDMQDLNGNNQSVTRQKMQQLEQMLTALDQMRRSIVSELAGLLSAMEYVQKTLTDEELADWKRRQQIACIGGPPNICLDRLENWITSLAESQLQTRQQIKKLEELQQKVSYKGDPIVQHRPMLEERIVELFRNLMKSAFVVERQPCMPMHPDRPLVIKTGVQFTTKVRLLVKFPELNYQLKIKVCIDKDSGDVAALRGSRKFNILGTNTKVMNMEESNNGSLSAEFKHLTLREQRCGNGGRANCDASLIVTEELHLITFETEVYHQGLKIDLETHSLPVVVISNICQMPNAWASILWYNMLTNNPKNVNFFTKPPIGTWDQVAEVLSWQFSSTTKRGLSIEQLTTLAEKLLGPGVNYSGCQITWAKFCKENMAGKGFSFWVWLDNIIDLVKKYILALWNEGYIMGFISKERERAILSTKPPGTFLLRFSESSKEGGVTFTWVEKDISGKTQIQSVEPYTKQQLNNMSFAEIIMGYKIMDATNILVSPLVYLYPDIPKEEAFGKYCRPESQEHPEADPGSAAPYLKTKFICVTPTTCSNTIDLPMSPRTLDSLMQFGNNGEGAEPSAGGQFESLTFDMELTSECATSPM

BV-2 = test: Inhibition of MMP9 production in mouse BV-2 cells co-cultured with rat C6 glioma cells at 2 uM incubated for 24 hrs by Western blot analysis; assay type: functional, cell-based
C6 [21] = test: Anxiolytic activity in rat C6 cells inoculated orthotopic Sprague-Dawley rat model assessed as suppression of MMP9 expression in tumor tissue at 50 mg/kg, ip twice a day administered for 13 days of tumor implantation by immunohistochemical staining analysis; assay type: functional, organism-based; conditions: time 13.0 day
U-87 MG [22] = test: Induction of apoptosis in human U-87 MG cells assessed as viable cells at 4 uM incubated for 48 hrs by Annexin VIM double staining based flow cytometry assay (reference value: 97.8%); assay type: functional, U-87MG ATCC; conditions: read-out: Activity
U-251 [23] = test: Induction of apoptosis in human U-251 cells assessed as viable cells at 4 uM incubated for 48 hrs by […] double staining based flow cytometry assay (reference value: 96.6%); assay type: functional; conditions: read-out: Activity
U-87 MG [24] = test: Induction of apoptosis in human U-87 MG cells assessed as early apoptotic cells at 4 uM incubated for 48 hrs by […] double staining based flow cytometry assay (reference value: 0.63%); assay type: functional, U-87MG ATCC
[25] = molecular target: Signal transducer and activator of transcription 3 (Homo sapiens) (UniProt P40763); test: Inhibition STAT3 phosphorylation in human U-87 MG cells incubated up to 8 hrs by Western blot analysis; assay type: cell-based; conditions: time hrs <=8
C6 [26] = test: Antitumor activity against rat C6 cells inoculated orthotopic Sprague-Dawley rat model assessed as tumor necrosis at 50 mg/kg, ip twice a day administered for 13 days of tumor implantation by hematoxylin-eosin staining analysis; assay type: functional, organism-based; conditions: time 13.0 day
U-251 [27] = test: Induction of apoptosis in human U-251 cells assessed as viable cells at 8 uM incubated for 48 hrs by […] double staining based flow cytometry assay (reference value: 96.6%); assay type: functional; conditions: read-out: Activity
U-87MG ATCC = test: Reduction in MMP9 expression in human U-87 MG cells incubated for 24 hrs by Western blot analysis; assay type: functional, cell-based; conditions: dose 1-4 µM
C6 [28] = test: Antitumor activity against rat C6 cells inoculated orthotopic Sprague-Dawley rat model assessed as tumor growth inhibition at 50 mg/kg, ip twice a day treated 3 days after tumor cell injection measured for 13 days after tumor implantation; assay type: functional; conditions: 72 h, time 3 day, read-out: TGI

SMILES: COc1cc(Nc2ccccc2C(=O)NCCc2c[nH]c3ccccc23)cc(OC)c1OC
- Tmax [1]: 25.2 min
- Activity [2]: Non-Toxic
- Activity (U-251 [3]): Active
- Activity [4]: Non-Toxic
- Activity (C6 [5]): Active
- viability at 4 µM (U-251 [6]): 80%
- Activity (U-87 MG [7]): 1.53%
- Activity (C6 [8]): Active
- IC50 (C6 [9]): 4.23 µM
- Activity (U-251 [10]): 63.7%
- Activity (U-251 [11]): 26.2%
- concentration at 24 h [12]: 200 ng/mL
- concentration at 2 h [13]: 520 ng/mL
- IC50 [14]: 8.29 µM
- Activity (U-87 MG [15]): Active
- viability at 2 µM (U-87 MG [16]): 95.1%
- Activity [17]: Non-Toxic
- IC50 (U-251 [18]): 1.87 µM
- Activity [19]: Non-Toxic
- inhibition [20]: Active
- inhibition (BV-2): Active
- Activity (C6 [21]): Active
- viability at 4 µM (U-87 MG [22]): 88.5%
- viability at 4 µM (U-251 [23]): 65.5%
- Activity (U-87 MG [24]): 6.09%
- inhibition [25]: Active
- Activity (C6 [26]): Active
- viability at 8 µM (U-251 [27]): 56.6%
- Activity (U-87MG ATCC): Dose-Dependent Effect
- inhibition in vivo at 50 mg/kg (C6 [28]): 66%
